Laboratory results: patent US20240228446A1, “PREPARATION METHOD FOR BICYCLIC COMPOUND AND APPLICATION AS ANTIFUNGAL AGENT” (priority 2021, published 2024)
≈ marks a conversion by molar mass, not a printed value.

Assays:
[1] = tested on: Aspergillus fumigatus ATCC MYA-4609; test: Minimal inhibitory concentration (MIC) test on fungal growth (CLSI M38, Aspergillus); type: cell-based; conditions: lowest concentration inhibiting Aspergillus by 100%, 35° C., 48 hours, RPMI1640; for MIC: Aspergillus fumigatus, read-out: MIC Aspergillus fumigatus ATCC MYA-4609
Protocol: • RPMI1640 medium: Brand: Gibco, article number: 31800-014 • Sabouraud dextrose agar (SDA): Brand: Hope Bio, article number: HB0253-81 • Voriconazole: Brand: Adamas, article number: 22105A • Amphotericin B: Brand: AbCam, article number: ab141199
MIC test was conducted in accordance with the guidelines and requirements of CLSI M27 (for yeasts) and M38 (for Aspergillus).
Strain preparation: The strains were inoculated 1 day in advance by streaking on SDA plates with glycerol strains stored at −80° C. The strains were cultured at 35° C. and 40 to 60% humidity for 18 to 24 hours. Streak inoculation of Aspergillus fumigatus and Cryptococcus neoformans was required to be done 3 days and 2 days in advance, respectively.
Preparation of culture medium and compounds: The liquid culture medium RPMI was prepared with pure water, and 0.165 mol/L MOPS was added to adjust the pH to 7.0. The mixture was filtered with a 0.22 μm-membrane filter, sterilized, and stored at 4° C. (no more than 3 months). 0.85% physiological saline was sterilized at 121° C. for 30 min and then stored at room temperature (no more than 1 week). The compounds were dissolved in DMSO to 12.8 mg/mL and stored at −20° C.
For Aspergillus, 5 mL of physiological saline was added to cover the mycelium, and the spores were gently scraped off with a spreader. The spore suspension was then transferred to a sterile test tube. An appropriate amount of spore suspension was taken and counted under a microscope using a hemocytometer. Spore concentration was adjusted to approximately 0.4 to 5×10^4 spores/mL using RPMI1640 medium.
The compound was diluted to the highest 800 μg/mL (or 400 μg/mL) with DMSO, and a 10-step 2-fold gradient dilution was performed, resulting in 11 concentrations. 2 μL of the gradient-diluted compound was transferred to the corresponding wells of a 96-well plate, and then 198 μL of the inoculum was transferred to the test plate. The plate was incubated at 35° C. for 24 hours (Aspergillus fumigatus and Cryptococcus neoformans were incubated for 48 and 72 hours, respectively).
After the incubation, the growth of the fungi was visually observed. The lowest concentration of the compound that inhibited the growth of yeast by 50% (inhibited Aspergillus by 100%) was defined as the minimum inhibitory concentration (MIC, μg/mL). A magnifying glass or reading at OD530 nm could be used to assist in determining the MIC. Photos were taken of the test plates for record keeping.

[2] = tested on: Candida albicans ATCC MYA-2876; test: Minimal inhibitory concentration (MIC) test on fungal growth (CLSI M27, yeasts); type: cell-based; conditions: lowest concentration inhibiting growth of yeast by 50%, 35° C., 24 hours, RPMI1640; for MIC: Candida albicans, read-out: MIC Candida albicans ATCC MYA-2876
Procedure, shortened: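 Broth microdilution followed CLSI M27 in RPMI1640 buffered with 0.165 M MOPS, pH 7.0, with a final inoculum of 500–2500 CFU/mL. Eleven 2-fold compound concentrations were tested, and plates were incubated 24 h at 35 °C. MIC was the lowest concentration giving 50% growth inhibition, read visually with optional OD530 assistance.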

With `CS(=O)(=O)COc1ccc(C23CC(C(F)(F)[C@](O)(Cn4cnnn4)c4ccc(F)cc4F)(C2)C3)cc1` (stereo in doubt) [Compound 131A] the MIC [1] was 4 µg/mL (≈ 7.6 µM) and the MIC [2] was at most 3.9 ng/mL.

`O[C@@](Cn1cnnn1)(c1ccc(F)cc1F)C(F)(F)C12CC(c3ccc(COC(F)F)cc3)(C1)C2` (stereo in doubt) [Compound 159A] gave an MIC [1] of 2 µg/mL (≈ 4.01 µM) and an MIC [2] of at most 3.9 ng/mL.

In the case of `O[C@H](COc1ccc(C23CC(C(F)(F)C(O)(Cn4cnnn4)c4cc(F)ccc4F)(C2)C3)cc1)C(F)(F)F` (stereo in doubt) [Compound 165], the MIC [1] is reported as 4 µg/mL (≈ 7.32 µM) and the MIC [2] is reported as 30 ng/mL (≈ 0.0549 µM).

With `O[C@@H](COc1ccc(C23CC(C(F)(F)C(O)(Cn4cnnn4)c4cc(F)ccc4F)(C2)C3)cc1)C(F)(F)F` (stereo in doubt) [Compound 166] the MIC [1] was 8 µg/mL (≈ 14.6 µM) and the MIC [2] was 60 ng/mL (≈ 0.11 µM).

With `COc1ccc(C23CC(C(F)(F)[C@](O)(Cn4cnnn4)c4ccc(F)cc4F)(C2)C3)cc1` [Compound 1A] the “MIC Aspergillus fumigatus ATCC MYA-4609” value [1] was 4 µg/mL (≈ 8.92 µM) and the “MIC Candida albicans ATCC MYA-2876” value [2] was 7.8 ng/mL (≈ 0.0174 µM).

In the case of `COc1ccc(C23CC(C(F)(F)C(O)(Cn4cnnn4)c4ccc(F)cc4F)(C2)C3)cc1` (centres unmarked) [Compound 1], the MIC [1] is reported as 8 µg/mL (≈ 17.8 µM) and the MIC [2] is reported as 15 ng/mL (≈ 0.0335 µM).

For `OC(Cn1cncn1)(c1ccc(F)cc1F)C(F)(F)C12CC(c3ccc(OCC(F)(F)F)cc3)(C1)C2` (centres unmarked) [Compound 2], the MIC [1] was 1 µg/mL (≈ 1.94 µM) and the MIC [2] was 7.8 ng/mL (≈ 0.0151 µM).

Work on `O[C@@](Cn1cnnn1)(c1ccc(F)cc1F)C(F)(F)C12CC(c3ccc(OCC(F)(F)F)cc3)(C1)C2` [Compound 3A] yielded an MIC [1] of 1 µg/mL (≈ 1.94 µM) and an MIC [2] of at most 3.9 ng/mL.

`OC(Cn1cnnn1)(c1ccc(F)cc1F)C(F)(F)C12CC(c3ccc(OCC(F)(F)F)cc3)(C1)C2` (centres unmarked) [Compound 3] gave an MIC [1] of 2 µg/mL (≈ 3.87 µM) and an MIC [2] of 30 ng/mL (≈ 0.0581 µM).

`O[C@](Cn1cnnn1)(c1ccc(Cl)cc1F)C(F)(F)C12CC(c3ccc(OCC(F)(F)F)cc3)(C1)C2` [Compound 7B] gave an MIC [1] of 1 µg/mL (≈ 1.88 µM) and an MIC [2] of 2000 ng/mL (≈ 3.75 µM).

In the case of `O[C@@](Cn1cncn1)(c1ccc(F)cc1F)C(F)(F)C12CC(C1)C2` [Compound 10A], the MIC [1] is reported as 1 µg/mL (≈ 2.93 µM) and the MIC [2] is reported as at most 3.9 ng/mL.

For `Oc1ccc(C23CC(C(F)(F)[C@](O)(Cn4cncn4)c4ccc(F)cc4F)(C2)C3)cc1` [Compound 21A], the MIC [1] was 1 µg/mL (≈ 2.31 µM) and the MIC [2] was at most 3.9 ng/mL.

With `Oc1ccc(C23CC(C(F)(F)C(O)(Cn4cncn4)c4ccc(F)cc4F)(C2)C3)cc1` (centres unmarked) [Compound 21] the MIC [1] was 2 µg/mL (≈ 4.61 µM) and the MIC [2] was at most 3.9 ng/mL.

For `O[C@@](Cn1cnnn1)(c1ccc(F)cc1F)C(F)(F)C12CC(c3ccc(OCC(F)F)cc3)(C1)C2` [Compound 22A], the MIC [1] was 2 µg/mL (≈ 4.01 µM) and the MIC [2] was 7.8 ng/mL (≈ 0.0156 µM).

With `OC(Cn1cnnn1)(c1ccc(F)cc1F)C(F)(F)C12CC(c3ccc(OCC(F)F)cc3)(C1)C2` (centres unmarked) [Compound 22] the MIC [1] was 4 µg/mL (≈ 8.03 µM) and the MIC [2] was 7.8 ng/mL (≈ 0.0156 µM).

With `OC(Cn1cncn1)(c1ccc(F)cc1F)C(F)(F)C12CC(c3ccc(OCC(F)F)cc3)(C1)C2` (centres unmarked) [Compound 23] the MIC [1] was 1 µg/mL (≈ 2.01 µM) and the MIC [2] was at most 3.9 ng/mL.

`OC(Cn1cncn1)(c1ccc(F)cc1F)C(F)(F)C12CC(c3ccc(OC(F)(F)F)cc3)(C1)C2` (centres unmarked) [Compound 25] gave an MIC [1] of 2 µg/mL (≈ 3.99 µM) and an MIC [2] of 7.8 ng/mL (≈ 0.0156 µM).

With `N#Cc1ccc(C23CC(C(F)(F)[C@](O)(Cn4cncn4)c4ccc(F)cc4F)(C2)C3)cc1` [Compound 27A] the MIC [1] was 0.5 µg/mL (≈ 1.13 µM) and the MIC [2] was at most 3.9 ng/mL.

`N#Cc1ccc(C23CC(C(F)(F)C(O)(Cn4cncn4)c4ccc(F)cc4F)(C2)C3)cc1` (centres unmarked) [Compound 27] gave an MIC [1] of 1 µg/mL (≈ 2.26 µM) and an MIC [2] of at most 3.9 ng/mL.

With `N#Cc1ccc(C23CC(C(F)(F)[C@](O)(Cn4cncn4)c4cc(F)ccc4F)(C2)C3)cc1` [Compound 29A] the MIC [1] was 1 µg/mL (≈ 2.26 µM) and the MIC [2] was at most 3.9 ng/mL.

`N#Cc1ccc(C23CC(C(F)(F)C(O)(Cn4cncn4)c4cc(F)ccc4F)(C2)C3)cc1` (centres unmarked) [Compound 29] showed an MIC [1] of 2 µg/mL (≈ 4.52 µM) and an MIC [2] of at most 3.9 ng/mL.

In the case of `CNC(=O)COc1ccc(C23CC(C(F)(F)[C@](O)(Cn4cncn4)c4ccc(F)cc4F)(C2)C3)cc1` [Compound 35A], the “MIC Aspergillus fumigatus ATCC MYA-4609” value [1] is reported as 1 µg/mL (≈ 1.98 µM) and the “MIC Candida albicans ATCC MYA-2876” value [2] is reported as at most 3.9 ng/mL.
